Data from patent US10822376B2, “Biologically active peptides” (Baxalta Incorporated, priority 2008, dated 2020).
Like-named read-outs stand apart in the source and are kept apart here.

Key:
[1] = system: Factor VIII deficient human plasma; experiment: DDPTGA (reagent B) in FVIII depleted plasma; assay type: biochemical; conditions: compounds at 50 μM and 80, 90 or 100 μM; note: key: '+' means stimulates; '−' means does not stimulate
From the text: Preferably, Reagent C high is used.

[2] = physchem
Experimental: Aqueous solubility is measured in PBS at pH 7.4 either in an assay provided by Cerep (France, Catalog ref. 900-11a) or according to the following protocol. The aim of this procedure is to determine the solubility of a drug candidate (analyte) in a buffer, by estimating the saturation concentration of the candidate in the buffer using HPLC. A known concentration of the candidate in an organic solvent is used as a standard. A stock solution of the test compound in DMSO must be prepared as the initial step. […] DMSO stock-solutions are diluted to a final concentration of 50 μM with DMSO (100% reference-solution) and buffer (test-solution) to provide a minimum volume of 500 μL of each. Both solutions are shaken at 25° C. at 950 rpm in an Eppendorf “thermomixer comfort” for at least 60 min. The suspension is centrifuged at 22 330 g for at least two min and 100 μL of the supernatant is transferred into polypropylene-inserts placed in glass vials and closed by snap-ring caps. Alternatively the solutions can be prepared in microtiter plates with half of the previously described starting solvent volume. For the determination of the solubility all samples are analyzed by HPLC in triplicate. Injection volume is at least 10 μL. The obtained data are analyzed by “Chemstation-software” (Agilent, Waldbronn, Germany). The peaks from the analyses of the organic solutions are integrated and the arithmetic mean is reported as “AUC 1” (reference area of known amount injected at the HPLC). […] The ratio of the mean “AUC 2” and “AUC 1” is calculated and thus the percentage of the dissolved amount of compound in buffer is obtained and solubility can be reported in μM.

[3] = system: FVIII deficient plasma; experiment: Defined Dual-Pathway Thrombin Generation Assay (DDPTGA, reagent C high), FVIII deficient plasma; assay type: biochemical, human; conditions: FVIII deficient plasma
[4] = system: Factor VII/VIIa deficient human plasma; experiment: DDPTGA (reagent B) in FVII depleted plasma; conditions: compounds at 50 μM and 80, 90 or 100 μM
Experimental: (§1) The Defined Dual-Pathway Thrombin Generation Assay is performed as described below, using a commercial test kit (Technothrombin TGA, Technoclone GmbH, Vienna, Austria). […] USA) are incubated four minutes at 37° C. Preferably, Reagent C high is used. Thrombin generation is started by the addition of 40 μl of one of several types of human plasma (37° C.). […] By deviating the original fluorescence data the amount of generated thrombin is calculated from a standard curve constructed using a concentration range of thrombin.
(§2) The in vitro thrombin generation assay based on the cleavage of Z-GGR-AMC to release the fluorophore AMC, described in the specific description, i.e. the Defined Dual-Pathway Thrombin Generation Assay was used to characterise the effect of the compounds in several depleted human plasmas. […] 10 μl peptide dilution, 40 μl TGA substrate and 40 μl plasma were used as described in the specific description.
(§3) The plasmas used in the experiments were fresh frozen and were deficient in Factor V, Factor VII/VIIa, Factor VIII, Factor X or Factor XI (George King Bio-Medical, Inc.). Residual coagulation factor levels of deficient plasmas were specified as less than 1%.
(§4) For each depleted plasma used in the experiments, compounds were tested at two concentrations, namely 50 μM and 80, 90 or 100 μM. A negative control was used, in which no test compound was included.

[5] = in vitro; conditions: human, plasma
[6] = system: human FVIII inhibited plasma; experiment: Defined Intrinsic Thrombin Generation Assay (DITGA, triggered by FXIa and phospholipids); assay type: biochemical
[7] = system: FVIII inhibited plasma; experiment: Defined Dual-Pathway Thrombin Generation Assay (DDPTGA, reagent C high), FVIII inhibited plasma; assay type: biochemical, human; conditions: FVIII inhibited plasma
[8] = system: Factor V deficient human plasma; experiment: DDPTGA (reagent B) in FV depleted plasma; conditions: compounds at 50 μM and 80, 90 or 100 μM
Experimental: as §1, §2, §3, §4

[9] = system: Factor X deficient human plasma; experiment: DDPTGA (reagent B) in FX depleted plasma; conditions: compounds at 50 μM and 80, 90 or 100 μM
Experimental: as §1, §2, §3, §4

[10] = system: Factor XI deficient human plasma; experiment: DDPTGA (reagent B) in FXI depleted plasma; conditions: compounds at 50 μM and 80, 90 or 100 μM
Experimental: as §1, §2, §3, §4

[11] = Acute toxicology in mice; assay type: in vivo, mouse; conditions: C57BL/6, mouse, in vivo, 60 minutes following administration, read-out: Max dose within toxicity category: No detected toxicity
Experimental: Toxicology studies involved monitoring of attitude changes due to toxic effects immediately after application and twice daily; monitoring of body weight; histopathology of brain, heart, kidney, liver, lung. Experiments were performed in C57131/6 mice.
C57BI/6 mice weighing 18-20 g were administered with compounds in a suitable vehicle i.v. in the tail vein or i.p. or s.c at 10 ml/kg. Quantities of the compounds administered were in the range of 0.075 to 125 mg/kg (i.v.), 15-125 mg/kg (i.p.) and 125 mg/kg (s.c.). There were four mice per group. Attitude changes due to toxic effects were monitored immediately after administration of the compound and for 60 minutes thereafter. Body weight was monitored for five days after administration. At day 5 after administration, mice were culled and autopsy performed. Brain, heart, kidney, liver, lung and spleen were biopsied.
In the above table, the maximum dose tested giving rise to no detected toxicity, some toxicity or severe toxicity over the period of 60 minutes following administration is reported. “No detected toxicity” indicates no acute toxic observations.

**Q.** For Ac-RMKFDVWDLYFEIVW-NH2 [Peptide A01], which “Stimulation of thrombin generation” value [1] is on record?
**A.** +

**Q.** And the solubility kinetic ([2]; pH 7.4)?
**A.** 9 µM

**Q.** What about the solubility ([2]; pH 7.4, Aqueous solubility) of the same substance?
**A.** 9 µM

**Q.** What about the “Peak IIa FVIII EU” value ([3]; peptide 50 μM) of the same substance?
**A.** BLS (BLS = below lowest standard.)

**Q.** And the “Peak Time FVIII EU” value ([3]; peptide 50 μM)?
**A.** BLS (BLS = below lowest standard.)

**Q.** And the “Peak IIa FVIII EU” value ([3]; peptide 90 μM)?
**A.** BLS (BLS = below lowest standard.)

**Q.** What about the “Peak Time FVIII EU” value ([3]; peptide 90 μM) of the same substance?
**A.** BLS (BLS = below lowest standard.)

**Q.** What about the “Stimulation of thrombin generation” value [4] of the same substance?
**A.** +

**Q.** What about the remaining at 0.5 h, 5 μM [5] of the same substance?
**A.** 58%

**Q.** And the “Thrombin peak time given as FEIBA equivalent activity” value (“Thrombin peak time given” below) ([6]; peptide 6.25 μM)?
**A.** 97 mU/ml

**Q.** And the “Thrombin peak time given” value ([6]; peptide 12.5 μM)?
**A.** 138 mU/ml

**Q.** What about the “Thrombin peak time given” value ([6]; peptide 25 μM) of the same substance?
**A.** 160 mU/ml

**Q.** And the “Thrombin peak time given” value ([6]; peptide 50 μM)?
**A.** 227 mU/ml

**Q.** What about the “Thrombin peak time given” value ([6]; peptide 100 μM) of the same substance?
**A.** 338 mU/ml

**Q.** And the “Activity in the Defined Intrinsic Thrombin Generation Assay” value ([6]; summary)?
**A.** possess activity

**Q.** What about the “Peak IIa FEIBA EU” value ([7]; peptide 50 μM) of the same substance?
**A.** BLS (BLS = below lowest standard.)

**Q.** What about the “Peak IIa FVIIa EU” value ([7]; peptide 50 μM) of the same substance?
**A.** BLS (BLS = below lowest standard.)

**Q.** What about the “Peak Time FEIBA EU” value ([7]; peptide 50 μM) of the same substance?
**A.** BLS (BLS = below lowest standard.)

**Q.** And the “Peak Time FVIIa EU” value ([7]; peptide 50 μM)?
**A.** BLS (BLS = below lowest standard.)

**Q.** What about the “Peak IIa FEIBA EU” value ([7]; peptide 90 μM) of the same substance?
**A.** BLS (BLS = below lowest standard.)

**Q.** What about the “Peak IIa FVIIa EU” value ([7]; peptide 90 μM) of the same substance?
**A.** BLS (BLS = below lowest standard.)

**Q.** And the “Peak Time FEIBA EU” value ([7]; peptide 90 μM)?
**A.** BLS (BLS = below lowest standard.)

**Q.** And the “Peak Time FVIIa EU” value ([7]; peptide 90 μM)?
**A.** BLS (BLS = below lowest standard.)

**Q.** What about the “Stimulation of thrombin generation” value [8] of the same substance?
**A.** −

**Q.** What about the “Stimulation of thrombin generation” value [9] of the same substance?
**A.** −

**Q.** What about the “Stimulation of thrombin generation” value [10] of the same substance?
**A.** +

**Q.** And the NOAEL at 1 h ([11]; ip)?
**A.** 20 mg/kg

**Q.** What about the NOAEL at 1 h ([11]; iv) of the same substance?
**A.** 20 mg/kg
